From PMC5856786, “A DHODH inhibitor increases p53 synthesis and enhances tumor cell killing by p53 degradation blockage” (Nature Communications, 2018)

What was measured:
[1] = system: p53-induced mRNAs in ARN8 cells; experiment: q-RT-PCR of p53-induced mRNAs and p53 mRNA; assay type: cell-based, human
Protocol: Supplementary Figure 1. HZ compounds increase the levels of p53-induced mRNAs. a) p53-null H1299 cells were transfected with the RGCΔ FosLacZ reporter construct and levels of p53-dependent transcription were determined by CPRG assay following a 16 h exposure to HZ00. A vector expressing wild-type p53 was used as a positive control. The average of three […]
for 1 hour prior to treatment with 2 µM nutlin-3 for an additional 18 hours. Levels of p53-induced mRNAs and p53 mRNA were determined by q-RT-PCR. tbp was used as a control.
Values correspond to the average of three technical repeats with standard deviation used for error. RNA extraction and q-RT-PCR were performed as previously described - see supplementary information7. c) HCT116 p53 wild-type or p53 deficient cells were treated […]
supplementary information for cell line description8. d) ARN8 cells treated for 6 hours with HZ00 at indicated doses. Levels of p53 mRNA were determined by q-RT-PCR. […]

[2] = system: P-chk1 (Ser 345)/chk1 in ARN8 cells; experiment: P-chk1/chk1 ratio by western blotting, ARN8; assay type: cell-based, human; conditions: first blot (taken as ARN8)
Excerpt: (§1) (Ser 345) and chk1 were detected. Ponceau S staining was used to monitor loading. […]

[3] = system: total RNA in ARN8 cells; experiment: Total RNA quantification; assay type: cell-based, human
Protocol: Cells were fixed in 4 % paraformaldehyde made in PBS followed by 10 min at 37 °C, permeabilization in 0.15 % Triton X-100 for 1-2 min at 37 °C, and staining with antibodies against nucleolin and p53. Images were taken using Olympus IX-71 microscope controlled by Delta Vision SoftWorx. Image stacks were deconvolved, quick-projected and saved as tiff images to be processed using Adobe PhotoShop. Antibodies to specific antigens are listed in Supplementary Table 8. b) ARN8 […]
was extracted and quantified. […]

[4] = system: cyclin-dependent kinases (CDKs); experiment: 33PanQinase radiometric kinase assay, panel of 16 CDKs (Supplementary Table 1); assay type: biochemical
Excerpt: Supplementary Table 1. In vitro inhibition (% remaining activity) of cyclin-dependent
ProQinase GmbH (Freiburg, Germany) using a radiometric protein kinase assay
(33PanQinase® Activity Assay).
(1 picture or pasted object on this page, not shown here)

[5] = system: P-chk1 (Ser 345)/chk1 in HNDF cells; experiment: P-chk1/chk1 ratio by western blotting, HNDF; assay type: cell-based, human; conditions: second blot (taken as HNDF)
Protocol: (Sigma, #N9162) for a further 2 h. […]
as §1

[6] = system: ARN8 xenograft; experiment: ARN8 subcutaneous xenograft; assay type: in vivo; conditions: ARN8 xenograft
Protocol: All animal xenograft experiments were approved by the Norwegian Animal Research Authority and conducted according to The European Convention for the Protection of Vertebrates Used for Scientific Purposes. […] The health status and weight of the mice were monitored daily and they were randomized in a non-blinded manner into 4 groups when tumor volumes reached 30–40 mm^3. […] Tumor volumes were measured every second day by a digital caliper using the following ellipsoid formula: Volume = π (length × width × height)/6.
To determine the efficacy of (R)-HZ05 in combination with nutlin-3a, 4 groups of NSG mice (n = 8 per group) were subcutaneously injected in the flank region with a single 100 μL injection of 2 × 10^6 ARN8 cells in a solution of PBS:Matrigel (volume ratio 3:1). Treatment was initiated when tumors reached ~50 mm^3. The maximum tolerated dose for this combination of drugs was previously determined for the strain we used. The endpoint of the experiment was determined by the tumor size ([…]) weight loss, and general condition of the mice according to The Norwegian Animal Research Authority.

[7] = molecular target: recombinant human DHODH (Homo sapiens, UniProt Q02127); experiment: Kinetic DHODH enzyme assay (3,4-dimethoxy-5-methyl-p-benzoquinone, DCIP); assay type: biochemical; design: made in house
Protocol: In Fig. 5a enzyme assays were optimized and performed with 6 nM recombinant human DHODH prepared as described. The reaction mixture for these kinetic assays consisted of 1 mM DL-dihydroorotic acid, 100 µM 3,4-dimethoxy-5-methyl-p-benzoquinone (#D9150, Sigma-Aldrich), and 100 µM DCIP in enzyme buffer. A stock solution of 20 mM DCIP was prepared in enzyme buffer and filtered through filter paper (20–25 μm pore size) just before use. Loss in absorbance by DCIP was measured at 595 nm at RT in a stepped time course (8 × 2 min, 8 × 3 min, 6 × 5 min). […] Therefore, for each concentration of inhibitor tested, a value for DHODH’s Vmax was estimated by linear regression within this time frame.

[8] = system: p53-dependent transcription in ARN8 human melanoma cells; experiment: p53-dependent transcription reporter (CPRG assay) in ARN8 cells; assay type: cell-based; conditions: cultured cells; authors' response in peer review file
Protocol: A 20,000 compound library was purchased from ChemBridge consisting of 10,000 from the DIVERSet and 10,000 from the CombiSet libraries. […] A total of 30,000 additional compounds from the ChemBridge DIVERSet that were previously screened in a T22 cell background[12] were re-screened in ARN8 cells at 5 µM. The ChemBridge codes for these compounds can be made available upon request. All chemical synthesis is detailed in Supplementary Information with NMR spectra and reaction schemes detailed in Supplementary Figs. 13–19.

Chain of recombinant human DHODH (Q02127 29-395 limits assumed): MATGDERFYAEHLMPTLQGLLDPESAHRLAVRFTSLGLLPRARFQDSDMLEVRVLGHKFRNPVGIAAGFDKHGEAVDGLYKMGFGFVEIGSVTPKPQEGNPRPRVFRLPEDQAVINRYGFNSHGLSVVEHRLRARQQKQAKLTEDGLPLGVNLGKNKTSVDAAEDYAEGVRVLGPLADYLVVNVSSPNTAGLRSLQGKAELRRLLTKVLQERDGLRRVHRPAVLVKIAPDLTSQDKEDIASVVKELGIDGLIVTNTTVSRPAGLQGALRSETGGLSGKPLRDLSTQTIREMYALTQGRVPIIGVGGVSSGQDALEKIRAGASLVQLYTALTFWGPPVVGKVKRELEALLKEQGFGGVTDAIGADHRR

| Structure (SMILES) | mRNA of p53 target genes [1] | P-chk1/chk1 ([2]; HZ00 10 µM, 24 h) | P-chk1/chk1 ([2]; HZ00 10 µM, 48 h) | P-chk1/chk1 ([2]; HZ00 10 µM, 72 h) | P-chk1/chk1 ([2]; HZ00 20 µM, 24 h) | P-chk1/chk1 ([2]; HZ00 20 µM, 48 h) | P-chk1/chk1 ([2]; HZ00 20 µM, 72 h) | total RNA levels [3] | inhibition of cyclin-dependent kinases [4] | P-chk1/chk1 ([5]; HZ00 10 µM, 24 h) | P-chk1/chk1 ([5]; HZ00 10 µM, 48 h) | P-chk1/chk1 ([5]; HZ00 10 µM, 72 h) | P-chk1/chk1 ([5]; HZ00 20 µM, 24 h) | P-chk1/chk1 ([5]; HZ00 20 µM, 48 h) | P-chk1/chk1 ([5]; HZ00 20 µM, 72 h) | xenograft tumor growth, combination with nutlin-3a ([6]; (R)-HZ05 75 mg/kg q.d. s.c. + nutlin-3a 50 mg/kg b.i.d. orally, 10 days) | xenograft tumor growth, single agent ([6]; (R)-HZ05 75 mg/kg q.d. s.c. or nutlin-3a 50 mg/kg b.i.d. orally) | IC50 ([7]; Fig. 5a, average of three independent repeats ± SD) | concentration inhibiting DHODH enzymatic activity ([7]; authors' response in peer review file) | concentration activating p53-dependent transcription [8] |
| --- | --- | --- | --- | --- | --- | --- | --- | --- | --- | --- | --- | --- | --- | --- | --- | --- | --- | --- | --- | --- |
| O=C(NC1CCCc2c1cnn2-c1ccccc1F)c1ccccn1 (centres unmarked) [HZ00] | raised the mRNA of p53 target genes | 1.02 | 1.28 | 0.78 | 0.94 | 1.41 | 0.87 | drop in total RNA levels | did not detect inhibition | 0.98 | 0.89 | 1.13 | 1.08 | 1.05 | 1.07 | – | – | – | – | – |
| O=C(NC1CCCc2c1cnn2-c1ccccc1F)c1onc2c1CCCC2 (centres unmarked) [HZ05] | – | – | – | – | – | – | – | – | – | – | – | – | – | – | – | statistically significant reduction in xenograft growth | ineffective | 32 ± 2 nM | below 40 nM | below 40 nM |
